{"source": "patent US6605641B2", "about": "“20-HETE antagonists and agonists” (MCW Research Foundation, priority 1998, dated 2003)", "key": {"[1]": {"system": "renal, cerebral and skeletal muscle arterioles", "settings": "read-out: EC50 as constrictor; cited from earlier work"}, "[2]": {"system": "isolated, pressured rat renal interlobular arteries", "assay": "Isolated vessel studies: vasoconstrictor response (vascular diameter) to cumulative doses of 20-HETE analogs", "assay_type": "cell-based", "settings": "for effect on the diameter of renal interlobular arteries (vasoconstrictor/agonist activity): 10^−8 to 10^−6 M (up to 1 μM), indomethacin, baicalein, 17-ODYA present, diameter 2 to 3 minutes after addition", "protocol": "General. Experiments were performed on 10 to 12-week old male Sprague-Dawley rats purchased from Harlan Sprague-Dawley Laboratories (Indianapolis, Ind.). The rats were housed in the animal care facility at the Medical College of Wisconsin, which is approved by the American Association for the Accreditation of Laboratory Animal Care. The animals had free access to food and water. All protocols involving animals received approval by the Animal Care Committee of the Medical College of Wisconsin.\n(§1) Isolated vessel studies. Interlobular arterioles (70-120 μm inner diameter) were microdissected from the kidneys of rats. The vessels were mounted on glass micropipettes in a perfusion chamber containing physiological saline solution equilibrated with a 95% O2-5% CO2 gas mixture and maintained at 37° C. The vessel were secured to the pipettes and side branches were tied off with 10-0 silk suture. The inflow pipette was connected to a pressurized reservoir to control of intraluminal perfusion pressure, which was monitored using a transducer (Cobe, Lakewood, Colo.). The vessels were stretched to in vivo length measured before microdissection. The outflow cannula was clamped off and intraluminal pressure was maintained at 90 mm Hg during the experiment. Vascular diameters were measured with a video system composed of a stereo microscope (Carl Zeiss, Inc., Germany), a CCTV television camera (KP-130AU, Hitachi, Japan), a videocassette recorder (AG-7300, Panasonic, Japan), a television monitor (CVM-1271, Sony, Japan), and a video measuring system (VIA-100, Boeckeler Instrument Co., Tucson, Ariz.).\n(§2) The composition of the perfusate and the bath was (in mM): 119 NaCl, 4.7 KCl, 1.17 MgSO4, 1.6 CaCl2, 12 NaHCO3, 1.18 NaH2PO4, 0.03 EDTA and 10 glucose, pH 7.4. Indomethacin (5 μM), baicalein (0.5 μM) and 17-ODYA (1 μM) were added to the bath to block the endogenous formation and metabolism of eicosanoids via the cyclooxygenase, lipoxygenase and cytochrome P450 pathways. After the equilibration period, cumulative dose response curves were generated for each of the 20-HETE analogs.\nEffect of the position of the hydroxyl group on the vasoconstrictor response to 20-HETE. These experiments examined the effects of increasing concentrations of 5(S)-, 8(S)-, 12(S)-, 15(S)-, and 19(S)-HETE on the diameter of isolated, pressured rat renal interlobular arteries. All of these analogs have the same number of carbons, double bonds and molecular weight as 20-HETE (FIG. 1). The major difference between these compounds and 20-HETE is the position of the OH group along the carbon chain. Additional experiments were performed with arachidonic acid and 20-carboxyarachidonic acid, which are structurally similar to 20-HETE but lack a hydroxyl group on the 20th carbon and 20-hydroxyeicosa-6, 15-dienoic acid (reverse 20-HETE) which has the carboxy- and hydroxy-moieties on the 1st and 20th carbons reversed. Cumulative dose response curves were generated for each compound (10^−8 to 10^−6 M) in the presence of indomethacin, baicalein, and 17-ODYA. Vascular diameters were recorded 2 to 3 minutes after the addition of the compounds to the bath.\nEffect of the double bonds and carbon chain length to the vasoconstrictor response to 20-HETE. We next examined the importance of the double bonds and the length of the carbon chain to the vasoconstrictor response to 20-HETE. In these studies, the double bonds in the 20-HETE molecule were removed creating partial and saturated 20-HETE derivatives (20-hydroxyeicosa-6(Z),15(Z) dienoic acid; 20-hydroxyeicosanoic acid, FIG. 1). 20-HETE was also shortened by one carbon, creating a 19-carbon analog (19-hydroxynonadeca-5(Z),8(Z),11(Z),14(Z)-tetraenoic acid, FIG. 1) and double bonds were removed, creating a saturated 19-carbon analog (19 hydroxynonadecanoic acid, FIG. 1). […]"}, "[3]": {"system": "vascular smooth muscle cells", "settings": "read-out: EC50 as constrictor; cited from earlier work"}, "[4]": {"system": "OK cells", "settings": "20-HETE 10^−9 M; cited from earlier work"}, "[5]": {"system": "LLC-PK1 cells", "settings": "20-HETE 10^−9 M; cited from earlier work"}, "[6]": {"system": "vasoconstrictor response to 20-HETE in isolated renal interlobular arteries", "assay": "20-HETE antagonist activity: dose response curves to 20-HETE before and after addition of analog", "assay_type": "cell-based, rat", "settings": "for effect of analog on the vasoconstrictor response to 20-HETE (antagonist activity): analog 0.5 or 1 μM in bath, 20-HETE 10^−8 to 10^−6 M", "protocol": "We also disclose below a test for 20-HETE antagonist activity. In this analysis, test compounds were analyzed by a cumulative dose response curve to 20-HETE generated before and after the addition of the test compound. […] We envision suitable antagonists as similarly blocking the vasoconstrictor response.\nas §1, §2\n20-HETE antagonist activity. […] In these experiments, cumulative dose response curves to 20-HETE (10^−8 to 10^−6 M) were generated before and after addition of 5(S)-HETE (0.5 μM), 8(S)-HETE (1 μM), 12(S)-HETE (0.5 μM), 15(S)-HETE (1 μM), 19(S)-HETE (1 μM), the C19-analog (1 μM), arachidonic acid (1 μM), 20-carboxy-arachidonic acid (1 μM), reverse 20-HETE (1 μM), saturated 20-HETE (1 μM), and the saturated C19-analog (1 μM) to the bath. Vascular diameters were recorded 2 to 3 minutes after the addition of each dose of 20-HETE to the bath."}}, "note": "Entries after “also recorded” stand apart in the source; their conditions may differ.", "data": [{"compound": "O=C(O)CCC/C=C\\C/C=C\\C/C=C\\C/C=C\\CCCCCO", "note": "[20-HETE, 20-hydroxyeicosatetraenoic acid]", "values": [{"measurement": "EC50", "setting": "[1]", "result": "< 10", "unit": "nM"}, {"measurement": "threshold concentration that reduced vascular diameter", "setting": "[2]; renal interlobular arterioles", "result": 10, "unit": "nM"}, {"measurement": "EC50", "setting": "[3]", "result": "< 10", "unit": "nM"}, {"measurement": "growth of cultured cells", "setting": "[4]", "result": "promotes the growth"}, {"measurement": "growth of cultured cells", "setting": "[5]", "result": "promotes the growth"}]}, {"compound": "O=C(O)CCC/C=C\\C/C=C\\C/C=C\\C/C=C\\CCCCO", "note": "[C19-analog, 19-Hydroxynonadeca-5(Z),8(Z),11(Z),14(Z)-tetraenoic Acid]", "values": [{"measurement": "effect on the diameter of renal interlobular arteries (vasoconstrictor/agonist activity)", "setting": "[2]; listed as 19-carbon analog of 20-HETE", "result": "no significant effect"}, {"measurement": "effect on the diameter of renal interlobular arteries (vasoconstrictor/agonist activity)", "setting": "[2]; listed as 19-carbon derivative of 20-HETE", "result": "no effect"}, {"measurement": "effect of analog on the vasoconstrictor response to 20-HETE (antagonist activity)", "setting": "[6]", "result": "completely eliminated the response to 20-HETE"}, {"measurement": "effect of analog on the vasoconstrictor response to 20-HETE (antagonist activity)", "setting": "[6]; listed as C19 analog", "result": "very effective antagonists"}]}, {"compound": "CCCCC/C=C\\C/C=C\\C/C=C\\C/C=C\\CCCC(=O)O", "note": "[arachidonic acid]", "values": [{"measurement": "effect on the diameter of renal interlobular arteries (vasoconstrictor/agonist activity)", "setting": "[2]", "result": "no significant effect; also recorded: does not constrict"}, {"measurement": "reduction of the vasoconstrictor response to 20-HETE", "setting": "[6]; analog 1 μM in bath, for arachidonic acid response to 1 μM 20-HETE", "result": 50, "unit": "%"}, {"measurement": "effect of analog on the vasoconstrictor response to 20-HETE (antagonist activity)", "setting": "[6]", "result": "very effective antagonists"}]}, {"compound": "O=C(O)CCCCCCCCCCCCCCCCCCCO", "note": "[saturated 20-HETE derivative, 20-Hydroxyeicosanoic Acid]", "values": [{"measurement": "effect on the diameter of renal interlobular arteries (vasoconstrictor/agonist activity)", "setting": "[2]", "result": "no effect"}, {"measurement": "effect of analog on the vasoconstrictor response to 20-HETE (antagonist activity)", "setting": "[6]", "result": "exhibited competitive antagonist activity"}, {"measurement": "effect of analog on the vasoconstrictor response to 20-HETE (antagonist activity)", "setting": "[6]; listed as saturated C20-analog", "result": "not as effective as the parent compounds"}, {"measurement": "melting point", "result": 86, "unit": "°C"}]}, {"compound": "Eicosatetraen-1,20-dioic Acid [20-carboxy-arachidonic acid]", "values": [{"measurement": "effect on the diameter of renal interlobular arteries (vasoconstrictor/agonist activity)", "setting": "[2]", "result": "no significant effect"}, {"measurement": "effect of analog on the vasoconstrictor response to 20-HETE (antagonist activity)", "setting": "[6]", "result": "no significant antagonistic properties"}]}]}
